Data taken from patent publication US8962691B2, “Retinoid replacements and opsin agonists and methods for the use thereof” (University of Washington, priority 2003, dated 2015).

Molecular target: T1, phosphorylated opsin (Mus musculus, UniProt P15409)
T1 construct: The retinas from Rpe65+/+ mice and Rpe65−/− mice were fixed in constant darkness; from tissue; host or cells: retina sections of Rpe65-/- and Rpe65+/+ mice (in vivo dosing)
Experiment: Immunocytochemistry with anti-phosphorylated Rh antibody
Assay type: in vivo
Details: gavaged once at PND 30, analyzed 48 hours post-treatment, dark
Protocol: Rpe65 mice were divided into five groups: Rpe65−/−, Rpe65−/− that were gavaged with 9-cis-retinal and kept in the dark; Rpe65−/− that were gavaged with 9-cis-retinal, exposed to a flash, and kept in the dark for 15 min; Rpe65+/+ that were kept in the dark; and Rpe65+/+ that were exposed to a flash and kept in the dark for 15 minutes. For the flash studies, dark-adapted mice were subjected to a flash (Sunpak 433D, 1 ms) from a distance of 2 cm. The retinas were fixed in 4% paraformalydehyde in 0.13 M sodium phosphate, pH 7.4, for 15 hours at 4° C., and the tissues were transferred to 5, 10, or 15% sucrose in 0.13 M sodium phosphate, pH 7.4, for 30 minutes each time and stored overnight in 20% sucrose in the same buffer at 4° C. The tissue was then transferred to optimal cutting temperature cryoembedding compound and sectioned at 10 μm. The cryosections were incubated overnight at 4° C. in mouse monoclonal anti-phosphorylated Rh A11-82P antibody diluted 1:10. Triton X-100 (0.1%) was included in all phosphate-buffered saline solutions to facilitate antibody penetration. The controls were processed by omitting primary antibodies from the incubation buffer. After incubation in primary antibodies, the sections were rinsed with phosphate-buffered saline and then incubated with indocarbocyanine (Cy3)-conjugated goat anti-mouse IgG (1:200). […]

T1 sequence (P15409 whole entry): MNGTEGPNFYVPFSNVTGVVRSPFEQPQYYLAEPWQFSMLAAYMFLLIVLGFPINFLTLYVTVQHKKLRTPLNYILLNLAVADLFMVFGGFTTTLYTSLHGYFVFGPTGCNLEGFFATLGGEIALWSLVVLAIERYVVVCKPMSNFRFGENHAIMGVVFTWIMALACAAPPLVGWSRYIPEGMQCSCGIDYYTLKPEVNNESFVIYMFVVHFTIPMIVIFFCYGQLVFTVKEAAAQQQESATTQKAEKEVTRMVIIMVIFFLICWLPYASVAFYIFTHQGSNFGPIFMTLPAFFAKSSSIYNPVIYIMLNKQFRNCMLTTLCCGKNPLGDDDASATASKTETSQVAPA

CC1=C(/C=C/C(C)=C\C=C\C(C)=C\C=O)C(C)(C)CCC1 [9-cis-retinal]
ROS labeling by antibody against phosphorylated opsin: abolished
